Measured values as given in ChEMBL document CHEMBL4406808, “Synthesis and assessment of phenylacrylamide derivatives as potential anti-oxidant and anti-inflammatory agents” (Eur J Med Chem, 2019).
Activity calls are given as the source filed them. No cut-off for these calls is given here.

Legend:
[1] = system: HBZY-1; assay: Cytoprotection activity against H2O2-induced cell death in rat HBZY-1 cells assessed as cell viability at 6 uM preincubated with compound for 2 hrs followed by H2O2 addition and measured after 24 hrs by MTT assay (reference value: 62.1%); assay type: functional; conditions: read-out: Activity
[2] = system: HBZY-1; assay: Cytotoxicity against rat HBZY-1 cells assessed as reduction in cell viability after 2 hrs by MTT assay; assay type: cell-based; conditions: HBZY-1, 2 h
[3] = target: T1, Nuclear factor erythroid 2-related factor 2 (Homo sapiens) (UniProt Q16236); assay: Activation of Nrf2 (unknown origin) expressed in HEK293 cells co-transfected with ARE luciferase reporter plasmid at 20 uM after 16 hrs by dual luciferase reporter gene assay; assay type: cell-based
T1 sequence (whole entry): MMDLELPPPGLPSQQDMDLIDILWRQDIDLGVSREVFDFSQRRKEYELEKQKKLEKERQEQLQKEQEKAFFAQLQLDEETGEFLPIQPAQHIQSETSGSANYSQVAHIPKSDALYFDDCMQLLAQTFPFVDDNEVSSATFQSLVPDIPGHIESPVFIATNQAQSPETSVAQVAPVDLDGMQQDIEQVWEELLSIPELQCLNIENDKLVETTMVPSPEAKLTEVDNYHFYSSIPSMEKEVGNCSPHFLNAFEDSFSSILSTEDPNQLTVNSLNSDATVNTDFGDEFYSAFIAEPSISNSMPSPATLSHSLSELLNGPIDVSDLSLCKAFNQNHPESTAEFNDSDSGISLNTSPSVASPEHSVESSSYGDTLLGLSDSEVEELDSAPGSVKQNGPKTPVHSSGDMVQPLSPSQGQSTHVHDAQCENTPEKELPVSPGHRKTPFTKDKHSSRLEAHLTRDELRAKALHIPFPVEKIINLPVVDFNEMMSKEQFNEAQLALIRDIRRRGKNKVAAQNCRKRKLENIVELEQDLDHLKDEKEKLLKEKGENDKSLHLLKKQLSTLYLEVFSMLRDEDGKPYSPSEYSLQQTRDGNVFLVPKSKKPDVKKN

| Activity [3] | SMILES | viability at 6 µM [1] [%] | IC50 [2] [µM] |
| --- | --- | --- | --- |
| – | COc1cc(NC(=O)/C(C#N)=C/c2ccccc2C(F)(F)F)cc(OC)c1OC | 65.6 to 96.4 | > 200 |
| – | COc1ccc(CCNC(=O)/C(C#N)=C/c2ccccc2C(F)(F)F)cc1OC | 65.6 to 96.4 | > 200 |
| – | COc1ccc(CCNC(=O)/C=C/c2ccccc2C(F)(F)F)cc1OC | 65.6 to 96.4 | > 200 |
| – | COc1ccc(NC(=O)/C=C/c2ccccc2C(F)(F)F)cc1 | 65.6 to 96.4 | > 200 |
| – | COc1ccccc1NC(=O)/C(C#N)=C/c1cc(OC)c(OC)c(OC)c1 | 78.1 | > 200 |
| – | COc1ccccc1NC(=O)/C(C#N)=C/c1ccc(OC)c(OC)c1 | 78.4 | > 200 |
| – | COc1ccc(NC(=O)/C(C#N)=C/c2ccccc2C(F)(F)F)cc1OC | 78.2 | > 200 |
| – | N#C/C(=C\c1ccccc1C(F)(F)F)C(=O)Nc1ccc(F)c(Cl)c1 | 80.4 | > 200 |
| – | COc1ccccc1C(=O)/C=C/c1ccccc1C(F)(F)F | 80.3 | – |
| – | CCCCNC(=O)/C(C#N)=C/c1ccccc1C(F)(F)F | 65.6 to 96.4 | > 200 |
| – | COc1ccc(NC(=O)/C=C/c2ccccc2C(F)(F)F)cc1OC | 65.6 to 96.4 | > 200 |
| Active | CC(C)(C)c1cc(O)ccc1O | – | – |
| – | COc1ccccc1NC(=O)/C(C#N)=C/c1cccc([N+](=O)[O-])c1 | 65.6 to 96.4 | > 200 |
